Reference: patent US10377753B2, “Substituted 4-azaindoles and their use as GluN2B receptor modulators” (Janssen Pharmaceutica NV, priority 2015, dated 2019)
Where a name gives a salt, the structure may show the parent alone.

These molecules were tested against cloned human NR1/NR2B ion channels (Homo sapiens (Human), UniProt Q05586+Q13224) (assay: HNR2BC: effects of test articles on cloned human NR1/NR2B ion channels expressed in mammalian cells (FLIPR calcium flux)). Conditions: cloned human NR1/NR2B, Table 5.
Chain of cloned human NR1/NR2B ion channels (Q13224 27-1484, other chains not shown): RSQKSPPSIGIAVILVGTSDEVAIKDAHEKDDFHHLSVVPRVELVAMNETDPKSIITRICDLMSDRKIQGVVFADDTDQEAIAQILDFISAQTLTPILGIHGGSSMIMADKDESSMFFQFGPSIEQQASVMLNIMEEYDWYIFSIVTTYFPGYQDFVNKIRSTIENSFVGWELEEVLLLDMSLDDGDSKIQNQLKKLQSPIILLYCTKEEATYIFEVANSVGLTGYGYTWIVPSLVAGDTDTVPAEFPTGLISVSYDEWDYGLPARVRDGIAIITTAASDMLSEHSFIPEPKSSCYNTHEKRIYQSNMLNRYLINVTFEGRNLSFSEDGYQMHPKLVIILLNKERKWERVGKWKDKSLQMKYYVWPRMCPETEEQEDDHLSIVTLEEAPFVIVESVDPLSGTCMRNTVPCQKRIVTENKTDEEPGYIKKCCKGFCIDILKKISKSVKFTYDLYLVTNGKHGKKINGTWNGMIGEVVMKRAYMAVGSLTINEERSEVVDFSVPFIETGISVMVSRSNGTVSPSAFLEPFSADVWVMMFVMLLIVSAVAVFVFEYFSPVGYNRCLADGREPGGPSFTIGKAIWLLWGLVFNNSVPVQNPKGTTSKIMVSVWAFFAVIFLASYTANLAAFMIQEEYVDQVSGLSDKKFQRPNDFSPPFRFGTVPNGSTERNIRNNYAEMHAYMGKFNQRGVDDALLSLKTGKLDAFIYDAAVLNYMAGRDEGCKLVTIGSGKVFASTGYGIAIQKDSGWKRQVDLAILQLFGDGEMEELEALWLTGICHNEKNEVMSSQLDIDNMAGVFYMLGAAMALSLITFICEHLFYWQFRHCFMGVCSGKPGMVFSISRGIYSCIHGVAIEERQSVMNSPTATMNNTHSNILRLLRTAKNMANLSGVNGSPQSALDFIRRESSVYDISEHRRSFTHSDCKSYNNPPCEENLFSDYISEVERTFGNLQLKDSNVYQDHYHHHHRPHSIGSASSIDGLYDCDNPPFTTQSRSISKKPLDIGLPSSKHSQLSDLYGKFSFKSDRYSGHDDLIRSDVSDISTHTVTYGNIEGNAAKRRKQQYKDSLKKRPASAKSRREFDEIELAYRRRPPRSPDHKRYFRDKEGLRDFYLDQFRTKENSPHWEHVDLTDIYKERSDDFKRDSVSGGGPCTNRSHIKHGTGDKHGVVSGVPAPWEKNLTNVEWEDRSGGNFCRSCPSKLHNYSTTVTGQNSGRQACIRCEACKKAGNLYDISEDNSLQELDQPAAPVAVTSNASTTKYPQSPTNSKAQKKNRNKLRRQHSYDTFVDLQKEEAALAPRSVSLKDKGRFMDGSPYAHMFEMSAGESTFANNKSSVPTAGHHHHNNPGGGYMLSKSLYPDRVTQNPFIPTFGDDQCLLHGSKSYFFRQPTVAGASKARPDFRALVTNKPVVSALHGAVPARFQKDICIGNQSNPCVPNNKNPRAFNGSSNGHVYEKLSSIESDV
Type: cell-based
In short: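 In a stable Tet-On-induced cell line expressing human GluN1/GluN2B, Calcium 5-loaded cells were preincubated 5 min with compound, then stimulated 5 min with glutamate at ~EC80 plus 10 μM glycine, in pH 7.4 HEPES buffer. FLIPR calcium fluorescence was normalized to control wells.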
In the case of `Cc1cc(-c2cnc3ccn(CC(=O)NC4CCC4)c3c2)ccc1F` [Example 66, N-Cyclobutyl-2-[6-(4-fluoro-3-methyl-phenyl)pyrrolo[3,2-b]pyridin-1-yl]acetamide trifluoroacetate salt], the IC50 is reported as 200 nM. For `Cc1cc(-c2cnc3c(Br)cn(CC(=O)N4CCC4)c3c2)ccc1F` [Example 68, 1-(Azetidin-1-yl)-2-[3-bromo-6-(4-fluoro-3-methyl-phenyl)pyrrolo[3,2-b]pyridin-1-yl]ethanone], the IC50 was 39.8 nM. Work on `Cc1cc(-c2cnc3c(F)cn(CC(=O)N4CCC4)c3c2)ccc1F` [Example 69, 1-(Azetidin-1-yl)-2-[3-fluoro-6-(4-fluoro-3-methyl-phenyl)pyrrolo[3,2-b]pyridin-1-yl]ethanone] yielded an IC50 of 25.1 nM. Work on `Cc1cc(-c2cnc3ccn(CC(=O)O)c3c2)ccc1F` [Example 70, 2-[6-(4-Fluoro-3-methyl-phenyl)pyrrolo[3,2-b]pyridin-1-yl]acetic acid] yielded an IC50 of 50.1 nM. Molecule `O=C(Cn1ccc2ncc(-c3ccccc3F)cc21)N1CCC1` [Example 71, 1-(azetidin-1-yl)-2-[6-(2-fluorophenyl)pyrrolo[3,2-b]pyridin-1-yl]ethanone] has an IC50 of 7940 nM. Work on `O=C(Cn1ccc2ncc(-c3cccc(F)c3)cc21)N1CCC1` [Example 72, 1-(Azetidin-1-yl)-2-[6-(3-fluorophenyl)pyrrolo[3,2-b]pyridin-1-yl]ethanone] yielded an IC50 of 251 nM. In the case of `Cc1ccc(-c2cnc3ccn(CC(=O)N4CCC4)c3c2)cc1` [Example 73, 1-(Azetidin-1-yl)-2-[6-(p-tolyl)pyrrolo[3,2-b]pyridin-1-yl]ethanone], the IC50 is reported as 39.8 nM. `CCc1cccc(-c2cnc3ccn(CC(=O)N4CCC4)c3c2)c1` [Example 74, 1-(Azetidin-1-yl)-2-[6-(3-ethylphenyl)pyrrolo[3,2-b]pyridin-1-yl]ethanone] was tested, and the IC50 was 200 nM. Work on `O=C(Cn1ccc2ncc(-c3ccccc3F)cc21)NC1CC1` [Example 75, N-Cyclopropyl-2-[6-(2-fluorophenyl)pyrrolo[3,2-b]pyridin-1-yl]acetamide] yielded an IC50 of 50.1 nM. `O=C(Cn1ccc2ncc(-c3cccc(F)c3)cc21)NC1CC1` [Example 76, N-Cyclopropyl-2-[6-(3-fluorophenyl)pyrrolo[3,2-b]pyridin-1-yl]acetamide] gave an IC50 of 1000 nM. In the case of `Cc1ccc(-c2cnc3ccn(CC(=O)NC4CC4)c3c2)cc1` [Example 77, N-Cyclopropyl-2-[6-(p-tolyl)pyrrolo[3,2-b]pyridin-1-yl]acetamide], the IC50 is reported as 251 nM. With `O=C(Cn1ccc2ncc(-c3ccccc3)cc21)N1CCCC1` [Example 78, 2-(6-Phenylpyrrolo[3,2-b]pyridin-1-yl)-1-pyrrolidin-1-yl-ethanone] the IC50 was 1580 nM. In the case of `O=C(Cn1ccc2ncc(-c3ccccc3F)cc21)N1CCCC1` [Example 79, 2-[6-(2-Fluorophenyl)pyrrolo[3,2-b]pyridin-1-yl]-1-pyrrolidin-1-yl-ethanone], the IC50 is reported as 79.4 nM. `O=C(Cn1ccc2ncc(-c3ccc(F)cc3)cc21)N1CCCC1` [Example 80, 2-[6-(4-Fluorophenyl)pyrrolo[3,2-b]pyridin-1-yl]-1-pyrrolidin-1-yl-ethanone] gave an IC50 of 316 nM. `Cc1cccc(-c2cnc3ccn(CC(=O)N4CCCC4)c3c2)c1` [Example 81, 2-[6-(m-Tolyl)pyrrolo[3,2-b]pyridin-1-yl]-1-pyrrolidin-1-yl-ethanone] showed an IC50 of 316 nM. `Cc1ccc(-c2cnc3ccn(CC(=O)N4CCCC4)c3c2)cc1` [Example 82, 2-[6-(p-Tolyl)pyrrolo[3,2-b]pyridin-1-yl]-1-pyrrolidin-1-yl-ethanone] gave an IC50 of 63.1 nM. Molecule `CCc1cccc(-c2cnc3ccn(CC(=O)N4CCCC4)c3c2)c1` [Example 83, 2-[6-(3-Ethylphenyl)pyrrolo[3,2-b]pyridin-1-yl]-1-pyrrolidin-1-yl-ethanone] has an IC50 of 251 nM. `O=C(Cn1ccc2ncc(-c3cccc(F)c3)cc21)N1CCCC1` [Example 84, 2-[6-(3-Fluorophenyl)pyrrolo[3,2-b]pyridin-1-yl]-1-pyrrolidin-1-yl-ethanone] was tested, and the IC50 was 79.4 nM.
